The numbers were not newly measured in patent US5919783A, “Indoline and azaindoline derivatives as 5-HT1D alpha receptor agonists” (Merck Sharp & Dohme Ltd., priority 1994, dated 1999), which cites them from elsewhere.

SMILES strings stand for the structures.

Data set [1] deals with human 5-HT1Dα and 5-HT1Dβ receptor subtypes. Conditions: cf. WO-A-91/17174, Table 1.
For data set [2] the following is noted: therapeutic doses.

On to `CNS(=O)(=O)Cc1ccc2[nH]cc(CCN(C)C)c2c1` [sumatriptan], for which the “discrimination between human 5-HT1Dα and 5-HT1Dβ receptor subtypes (in words)” value in data set [1] is “barely discriminates”. Besides, the “adverse events in humans” value in data set [2] was “adverse cardiovascular events”.
